According to ChEMBL document CHEMBL1201862, “PubChem BioAssay data set” (2004):
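Grown in 96-well plates, cells were treated for 48 hours with each compound at five concentrations. Insufficient inhibition: endpoint recorded as highest concentration tested. Abbreviation: GI50, concentration required for 50% inhibition of growth.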 The source made the active and inactive calls. No stated cut-off is given here; in the data, active = GI50 up to about 1.1 µM and inactive = higher.

Experiments:
Assay in all cases: NCI anticancer screen, dose series, 48 h
[1] = test system: M19-MEL
[2] = test system: KM-20L2
[3] = test system: RXF 631
[4] = test system: SNB-78
[5] = test system: DMS-273
[6] = test system: DLD-1
[7] = test system: XF498
[8] = test system: HOP-18
[9] = test system: LXFL 529

Row | Compound | GI50 [1] | GI50 [2] | GI50 [3] | GI50 [4] | GI50 [5] | GI50 [6] | GI50 [7] | GI50 [8] | GI50 [9]
1 | CCN(CC)c1ccc(C(=C2C=CC(=[N+](CC)CC)C=C2)c2ccc(N(CC)CC)cc2)cc1 | 0.0948 µM (active) | 0.184 µM (active) | 0.194 µM (active) | 0.398 µM (active) | 0.137 µM (active) | 0.063 µM (active) | 0.0296 µM (active) | – | –
2 | CN(C)CC1(C)CC/C(=C\c2ccccc2)C1=O (stereo not given) | > 100 µM (inactive) | > 100 µM (inactive) | 49 µM (inactive) | > 100 µM (inactive) | > 100 µM (inactive) | > 100 µM (inactive) | > 100 µM (inactive) | > 100 µM (inactive) | –
3 | COC(=O)N/N=C/C(=C/Nc1ccccc1)[N+](=O)[O-] | > 100 µM (inactive) | > 100 µM (inactive) | > 100 µM (inactive) | – | > 100 µM (inactive) | > 100 µM (inactive) | > 100 µM (inactive) | > 100 µM (inactive) | > 100 µM (inactive)
4 | O=C1CCCC[C@H]1[C@H]1CCC[C@@H]([C@H]2CCCCC2=O)C1=O | > 100 µM (inactive) | > 100 µM (inactive) | > 100 µM (inactive) | 3.44 µM (inactive) | > 100 µM (inactive) | > 100 µM (inactive) | > 100 µM (inactive) | > 100 µM (inactive) | > 100 µM (inactive)
5 | C/C(=N\NC(=O)CC(=O)Nc1ccc(Cl)cc1)c1cc2ccccc2oc1=O | > 100 µM (inactive) | > 100 µM (inactive) | – | – | > 100 µM (inactive) | > 100 µM (inactive) | > 100 µM (inactive) | > 100 µM (inactive) | –
6 | CCCN(CCCCC(NC(C)=O)C(=O)NCc1ccccc1)C(=O)N(C)N=O (stereo not given) | > 100 µM (inactive) | > 100 µM (inactive) | – | > 100 µM (inactive) | > 100 µM (inactive) | > 100 µM (inactive) | > 100 µM (inactive) | – | > 100 µM (inactive)
7 | N=C(N)NS(=O)(=O)c1ccc(NCc2c3ccccc3nc3ccccc23)cc1 | 10 µM (inactive) | 57.9 µM (inactive) | 4.82 µM (inactive) | 23.1 µM (inactive) | 2.1 µM (inactive) | 23.5 µM (inactive) | – | 9.18 µM (inactive) | 12.8 µM (inactive)
8 | C/C(=N\NC(N)=S)C(CN(CC(C)C)CC(C)C)C(=O)Nc1ccc(C)cc1C (stereo not given) | > 100 µM (inactive) | > 100 µM (inactive) | – | > 100 µM (inactive) | > 100 µM (inactive) | > 100 µM (inactive) | > 100 µM (inactive) | > 100 µM (inactive) | > 100 µM (inactive)
9 | Cc1ccccc1C1=[N+]([O-])c2ccc(Cl)cc2C1=O | 8.05 µM (inactive) | 4.51 µM (inactive) | 3.72 µM (inactive) | – | – | 7.41 µM (inactive) | 4.39 µM (inactive) | 14.1 µM (inactive) | 12 µM (inactive)
10 | CC(=O)NC1C(OCc2ccccc2)OC(COC(=O)CCCCCCCCCCNc2ccc([N+](=O)[O-])c3[nH]c4ccccc4c(=O)c23)C(O)C1OC(C)C(=O)NC(C)C(=O)NC(CCC(N)=O)C(=O)OCc1ccccc1 (stereo not given) | > 100 µM (inactive) | > 100 µM (inactive) | – | > 100 µM (inactive) | > 100 µM (inactive) | > 100 µM (inactive) | > 100 µM (inactive) | > 100 µM (inactive) | > 100 µM (inactive)
11 | O=S(=O)(c1ccccc1)N1CCC1c1ccccc1 (stereo not given) | > 100 µM (inactive) | > 100 µM (inactive) | > 100 µM (inactive) | > 100 µM (inactive) | > 100 µM (inactive) | – | 51.9 µM (inactive) | 51.5 µM (inactive) | –
12 | Sc1ccccc1S | > 100 µM (inactive) | > 100 µM (inactive) | > 100 µM (inactive) | > 100 µM (inactive) | > 100 µM (inactive) | > 100 µM (inactive) | > 100 µM (inactive) | > 100 µM (inactive) | > 100 µM (inactive)
13 | Cc1ccc(S(=O)(=O)CNC(=S)CCCC(=S)NCS(=O)(=O)c2ccc(C)cc2)cc1 | > 100 µM (inactive) | > 100 µM (inactive) | 41 µM (inactive) | 78.9 µM (inactive) | 44.2 µM (inactive) | > 100 µM (inactive) | > 100 µM (inactive) | – | 44.9 µM (inactive)
14 | CCCCCCCC(=O)OCC1OC(n2cc(F)c(=O)[nH]c2=O)C(N)C(O)C1O (stereo not given) | > 100 µM (inactive) | > 100 µM (inactive) | – | > 100 µM (inactive) | > 100 µM (inactive) | > 100 µM (inactive) | – | > 100 µM (inactive) | > 100 µM (inactive)
15 | COc1cccc2c1C(=O)c1c(O)c3c(c(O)c1C2=O)CC(O)(C(C)=O)CC3OC1CC([N+](C)(C)C)C(O)C(C)O1 (stereo not given) | 70.6 µM (inactive) | > 100 µM (inactive) | 31.1 µM (inactive) | > 100 µM (inactive) | 27.5 µM (inactive) | 91.2 µM (inactive) | 10.7 µM (inactive) | > 100 µM (inactive) | 64.9 µM (inactive)
16 | N#C[C-](C#N)[n+]1ccc(Cl)cc1 | 12.4 µM (inactive) | 24.2 µM (inactive) | 17.4 µM (inactive) | 17.9 µM (inactive) | 18.7 µM (inactive) | 11.5 µM (inactive) | 19.3 µM (inactive) | – | 13.6 µM (inactive)
17 | COS(=O)CCOC(=O)c1ccccc1SSc1ccccc1C(=O)OCCS(=O)OC (stereo not given) | 21.2 µM (inactive) | 61 µM (inactive) | – | > 100 µM (inactive) | 26.4 µM (inactive) | 34.5 µM (inactive) | 29.8 µM (inactive) | > 100 µM (inactive) | 18.5 µM (inactive)
18 | CCN(CC)CCCNc1ncc(C)c2c1c1ccc3c(O)cccc3c1n2C | – | 3.07 µM (inactive) | – | 14.2 µM (inactive) | 0.76 µM (active) | 1.47 µM (inactive) | 15.2 µM (inactive) | 0.635 µM (active) | 1.61 µM (inactive)
19 | Nc1nc(CCc2n[nH]c(N)n2)n[nH]1 | > 100 µM (inactive) | > 100 µM (inactive) | > 100 µM (inactive) | > 100 µM (inactive) | > 100 µM (inactive) | > 100 µM (inactive) | – | – | > 100 µM (inactive)
20 | Cc1c2cc[n+](C)cc2c(C)c2c1[nH]c1ccc(OC(C)(C)C)cc12 | > 100 µM (inactive) | – | – | > 100 µM (inactive) | > 100 µM (inactive) | > 100 µM (inactive) | – | > 100 µM (inactive) | > 100 µM (inactive)
21 | C[C@]12CC[C@H](OC3OC(CO)C(O)C(O)C3O)C[C@H]1CC[C@@H]1[C@@H]2CC[C@]2(C)[C@@H](C3=CCOC3=O)CC[C@]12O (stereo not given in full) [ACTODIGIN] | 11.7 µM (inactive) | 3.55 µM (inactive) | – | 26.5 µM (inactive) | 1.97 µM (inactive) | 39.7 µM (inactive) | 1.44 µM (inactive) | 50 µM (inactive) | –
22 | Nc1ncnc2c1nc(Cl)n2[C@@H]1O[C@@H]2COP(=O)(O)O[C@H]2[C@H]1O [TOCLADESINE] | > 300 µM (inactive) | 13.5 µM (inactive) | – | 165 µM (inactive) | 3.15 µM (inactive) | 3.81 µM (inactive) | – | > 109 µM (inactive) | –
